# Structures can show the parent of a compound that is named as a salt.
# Tests used:
# [1] = single oral dose, healthy individual, FIG. 6
# Experimental: One hundred twenty milligrams (120 mg) of diltiazem hydrochloride powder were combined with a 360 mg dose of DILTIAZEM OD ER. […] Consequently, this mixture contained approximately 25 percent by weight of a quick release preparation of diltiazem, and approximately 75 percent by weight of a slow release preparation of diltiazem, based upon the percentage of diltiazem in the final mixture.
# The resulting mixture was then encapsulated in a larger gelatin capsule and orally administered to a healthy individual, taking no medications which would affect diltiazem plasma levels or interfere with their proper determination. Controls containing either 120 mg diltiazem hydrochloride or 360 mg Diltiazem ER were administered separately. An interval of approximately 5-7 days elapsed between the administration of each agent tested in this example.
# An intravenous blood sample was withdrawn into pre-cooled, commercially available [sequence] (TM) containing EDTA (ethylenediamine tetraacetic acid) as an anticoagulant Just before administration of the test agent; this sample represented the zero time sample. The blood sample was centrifuged for 15 minutes under conditions known to those skilled in the art. […] The plasma levels of diltiazem were determined by HPLC (High Performance Liquid Chromatography) analysis according to the method of Eradiri (36).
# angina pectoris = settings: cited from earlier work
# [2] = in vivo; cited from earlier work
Structure (SMILES),time after administration by which most of the preparation is gone [1] [h],time to peak plasma levels of diltiazem after administration [1] [h],incidence of side effects versus other calcium channel blockers (angina pectoris; comparative studies),"efficacy versus beta-adrenergic receptor blockers, nitrates and verapamil (angina pectoris; in vivo)",efficacy versus nifedipine (angina pectoris; in vivo),plasma half-life [2] [h]
COc1ccc([C@@H]2Sc3ccccc3N(CCN(C)C)C(=O)[C@@H]2OC(C)=O)cc1 [diltiazem hydrochloride],5 to 6,1 to 2,,,,
"COc1ccc([C@@H]2Sc3ccccc3N(CCN(C)C)C(=O)[C@@H]2OC(C)=O)cc1 [diltiazem, 25-cis-3-(Acetoxyl)-5-[2-(dimethylamino)ethyl]-2-3-dihydro-2-(4-methoxyphenyl)-1,5-benzothiazepin-4(5H)-one]",,,lower incidence of side effects,equivalent,more effective,2 to 6
